# Assay results as given in ChEMBL document CHEMBL3227965, “Synthesis of 5-selenium-substituted uracil derivatives. Inhibition of thymidylate synthetase by 5-hydroseleno-2'-deoxyuridylate” (J Med Chem, 1979).
# Activity calls are given as the source filed them. No cut-off for these calls is given here.
# Key:
# Thymidylate synthase [1] = biological target: T1, Thymidylate synthase (Lactobacillus casei, UniProt P00469); test: Inhibition of dichloromethotrexate-resistant Lactobacillus casei thymidylate synthase by Dixon plot method; design: species or system Lacticaseibacillus casei
# T1 sequence (P00469 whole entry): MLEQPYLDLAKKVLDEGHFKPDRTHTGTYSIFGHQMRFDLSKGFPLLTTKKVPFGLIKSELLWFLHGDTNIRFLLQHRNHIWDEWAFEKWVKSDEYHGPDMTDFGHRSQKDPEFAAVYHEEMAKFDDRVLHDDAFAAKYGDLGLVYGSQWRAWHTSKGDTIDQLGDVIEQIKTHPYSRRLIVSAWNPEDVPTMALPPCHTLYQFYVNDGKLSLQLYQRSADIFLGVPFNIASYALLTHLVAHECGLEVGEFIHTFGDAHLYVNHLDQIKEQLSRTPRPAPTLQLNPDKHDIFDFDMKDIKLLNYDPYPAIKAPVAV
# Thymidylate synthase [2] = biological target: T1, Thymidylate synthase; test: Reversible competitive inhibition of dichloromethotrexate-resistant Lactobacillus casei thymidylate synthase using […] as substrate by Dixon plot method; design: species or system Lacticaseibacillus casei; conditions: read-out: Ki(app)
# L1210 [3] = test: Cytotoxicity against mouse L1210 cells assessed as growth inhibition at 10^-4 M; type: functional, cell-based
# L1210 [4] = test: Cytotoxicity against mouse L1210 cells assessed as growth inhibition at 5 x 10^-6 M; type: functional, cell-based
structure (smiles),measurement,setting,value
O=c1[nH]c(=O)n([C@H]2C[C@H](O)[C@@H](COP(=O)(O)O)O2)cc1S,Ki,Thymidylate synthase [1],48 nM
O=c1[nH]c(=O)n([C@H]2C[C@H](O)[C@@H](COP(=O)(O)O)O2)cc1[SeH],Ki,Thymidylate synthase [2],60 nM
O=c1[nH]c(=O)n([C@H]2C[C@H](O)[C@@H](CO)O2)cc1[Se][Se]c1cn([C@H]2C[C@H](O)[C@@H](CO)O2)c(=O)[nH]c1=O,Activity,L1210 [3],inactive
O=c1[nH]c(=O)n([C@H]2C[C@H](O)[C@@H](CO)O2)cc1S,Activity,L1210 [4],Active
